Reference: patent publication US8426365B2, “Method of treating or preventing tissue deterioration, injury or damage due to congestive heart failure” (Regenerx Biopharmaceuticals, Inc., priority 2005, dated 2013)

How the values were obtained:
[1] = system: dystrophin deficient (mdx) mice; assay: Grip strength meter, dystrophin deficient (mdx) mice; assay type: in vivo; details: Mdx treated
Protocol: (§1) Four groups of mice were treated with thymosin beta 4. Group 1 was normal mice (BL10) that were given placebo (untreated). Group 2 was normal mice that were treated with thymosin beta 4. Group 3 was dystrophin deficient (mdx) mice treated with placebo and Group 4 was mdx mice treated with thymosin beta 4. Mice were treated with 150 micrograms of thymosin beta 4 in 300 microliters of buffer given intraperitoneally twice a week and placebo mice were given 300 microliters of buffer only. The mice exercised on a treadmill at a speed of 12 meters/minute for 30 minutes twice a week. Functional, behavioral and echocardiographic data were obtained at baseline and after 2 months, 4 months and 6 months of treatment.
(§2) Functional data were non-invasive measurements of skeletal muscle function. The muscle strength of the forelimbs and hindlimbs was assessed using a grip strength meter. The animals were allowed to hold onto the meter platform and then were slowly pulled until they lost their grip. The amount of force needed to free the grip was recorded. Multiple measurements were taken for each mouse at each time point. The same protocol was followed for hindlimb muscle strength. Another functional assessment was the Rotarod test. Here, mice were placed on a rotating bar and kept their balance and position as the bar rotated with increasing speed (10 RPM for 1 minute and then increased 0.2 RPM over the next three minutes). The time until the mouse falls was measured. This test was also repeated multiple times.

[2] = system: mouse MI-induced heart failure model; assay: Mouse myocardial infarction (MI) heart failure model; assay type: in vivo, C57 black mice; details: 150 μg/mouse i.p. immediately after MI, then every three days for 4 weeks
Protocol: The procedures used in this study are exactly same as that reported in Nature (432:466-472, 2004). Briefly, C57 black mice, 14 weeks old, were used in this study. Mice were given thymosin β4 (Bachem, Lot #FTHYB40501B) (150 μg/mouse) immediately after myocardial infarction and then every three days for 4 weeks by i.p. injection. The parameters of this study included cardiac morphology and function by echocardiography (echo), invasive cardiac function measurement using Millar catheter, survival rate, and histochemical analysis.

[3] = system: dystrophin deficient (mdx) mice; assay: VersaMax animal activity monitoring, dystrophin deficient (mdx) mice; assay type: in vivo; details: Mdx treated
Protocol: as §1
(§3) Behavioral data was collected using the VersaMax™ animal activity monitoring system. Mice were placed in a monitored box and activity was quantified by different sensors. Data includes horizontal activity, vertical activity and total distance traveled and many other activity parameters were measured. Multiple measurements were made over a 3 day period.

normal (BL10) mice [4] = assay: Grip strength meter, normal (BL10) mice; assay type: in vivo; details: BL10 treated
Protocol: as §1, §2

normal (BL10) mice [5] = assay: VersaMax animal activity monitoring, normal (BL10) mice; assay type: in vivo; details: BL10 treated
Protocol: as §1, §3

[6] = system: heart attack in the mouse model; details: administered immediately following a heart attack; Nature 2004; cited from earlier work
normal (BL10) mice [7] = assay: Rotarod test, normal (BL10) mice; assay type: in vivo; details: BL10 treated, time until the mouse falls
Protocol: as §1
(§4) Functional data were non-invasive measurements of skeletal muscle function. The muscle strength of the forelimbs and hindlimbs was assessed using a grip strength meter. The animals were allowed to hold onto the meter platform and then were slowly pulled until they lost their grip. The amount of force needed to free the grip was recorded. Multiple measurements were taken for each mouse at each time point. The same protocol was followed for hindlimb muscle strength. Another functional assessment was the Rotarod test. […] The time until the mouse falls was measured. […]

[8] = system: dystrophin deficient (mdx) mice; assay: Rotarod test, dystrophin deficient (mdx) mice; assay type: in vivo; details: Mdx treated, time until the mouse falls
Protocol: as §1, §4

[9] = 2 month, 150 micrograms i.p. twice a week

What does the source list for “thymosin beta 4 (SDKPDMAEIEKFDKSKLKKTETQEKNPLPSKETIEQEKQAGES; Thymosin beta-4; UniProt P62328 2-44, looked up) [43 amino acid, 4.9 kDa ubiquitous polypeptide originally isolated from the thymus]”?
Avg max forelimb strength [1, 9]: 3.78 KGF/kg; Avg max hindlimb strength [1, 9]: 7.29 KGF/kg; Avg max forelimb strength ([1]; Baseline): 4.46 KGF/kg; Avg max hindlimb strength ([1]; Baseline): 6.29 KGF/kg; left ventricular end diastolic pressure (LVEDP) [2]: significantly reduced; left ventricular end diastolic volume [2]: significantly attenuated; left ventricular end systolic volume [2]: significantly attenuated; left ventricular systolic pressure (LVSP) [2]: showed a trend in improvement (i.e., a reduction); rate of change (velocity) in left ventricular pressure-rise with time (dP/dt) [2]: significantly improved; rate of change (velocity) in left ventricular relaxation [2]: showed a trend in affecting (improving); pulmonary edema (lung weight) ([2]; listed as TB4): significantly attenuated; thickening of left ventricle / heart muscle (heart weight) ([2]; listed as TB4): significantly attenuated; Avg horizontal activity [3, 9]: 961; Avg movement time [3, 9]: 18.9 s; Avg total distance [3, 9]: 167 cm; Avg vertical activity [3, 9]: 8.2; Avg horizontal activity ([3]; Baseline): 1071; Avg movement time ([3]; Baseline): 25 s; Avg total distance ([3]; Baseline): 209 cm; Avg vertical activity ([3]; Baseline): 12; Avg max forelimb strength (normal (BL10) mice [4]; [9]): 5.73 KGF/kg; Avg max hindlimb strength (normal (BL10) mice [4]; [9]): 9.18 KGF/kg; Avg max forelimb strength (normal (BL10) mice [4]; Baseline): 5.57 KGF/kg; Avg max hindlimb strength (normal (BL10) mice [4]; Baseline): 7.35 KGF/kg; Avg horizontal activity (normal (BL10) mice [5]; [9]): 1287; Avg movement time (normal (BL10) mice [5]; [9]): 27 s; Avg total distance (normal (BL10) mice [5]; [9]): 239 cm; Avg vertical activity (normal (BL10) mice [5]; [9]): 13.1; Avg horizontal activity (normal (BL10) mice [5]; Baseline): 1761; Avg movement time (normal (BL10) mice [5]; Baseline): 41 s; Avg total distance (normal (BL10) mice [5]; Baseline): 375 cm; Avg vertical activity (normal (BL10) mice [5]; Baseline): 28; ejection fraction [6]: able to improve; fractional shortening [6]: able to improve; Rotorod (normal (BL10) mice [7]; [9]): 191; Rotorod (normal (BL10) mice [7]; Baseline): 214; Rotorod [8, 9]: 147; Rotorod ([8]; Baseline): 211
